This is an account of results in US4962109A, “Insecticidally and acaricidally active pyrimidine esters and intermediates therefor” (Imperial Chemical Industries PLC, priority 1985, dated 1990).

What all share (assay type): in vivo
For test [1], the system named is Tetranychus urticae (spider mites - adult). The experiment in a line: Contact test on spider mites - adult (TUa), French bean leaf, mortality. The settings on record: 72 h, contact, 3 days, read-out: TUa grading of mortality. As for the experimental part: (§1) The activity of the Product was determined using a variety of insect pests. The Product was used in the form of liquid preparations containing 500, 250 or 100 parts per million (ppm) by weight of the Product. The preparations were made by dissolving the Product in acetone and diluting the solutions with water containing 0.01% by weight of a wetting agent sold under the trade name "LISSAPOL" NX until the liquid preparations contained the required concentration of the Product. "Lissapol" is a Registered Trade Mark.
(§2) The test procedure adopted with regard to each pest was basically the same and comprised supporting a number of the pests on a medium which was usually a host plant or a foodstuff on which the pests feed, and treating either or both the pests and the medium with the preparations. The mortality of the pests was then assessed at periods usually varying from one to three days after the treatment.
(§3) The results of the tests are given in Table III for each of the Products, at the rate in parts per million given in the second column as a grading of mortality designated as A, B or C wherein A indicates 80-100% mortality or knockdown, B indicates 50-79% mortality or knockdown and C indicates less than 50% mortality or knockdown.

The subject of test [2] is Tetranychus urticae (spider mites - ova). The experiment in a line: Contact test on spider mites - ova (TUe), French bean leaf, mortality. The settings on record: 144 h, contact, 6 days, read-out: TUe grading of mortality. On the procedure:
as §1, §2, §3

A further test has as its system Myzus persicae (aphids). Nature of the test: Contact test on aphids (MP), Chinese Cabbage leaf, mortality. The settings on record: 72 h, contact, 3 days, read-out: MP grading of mortality. On the procedure:
as §1, §2, §3

In test [3] the test system is Nephotettix cincticeps (green leaf hopper - nymphs). Nature of the test: Contact test on green leaf hopper nymphs (NC), Rice plant, mortality. The settings on record: 48 h, 500 ppm, contact, 2 days, read-out: NC grading of mortality. On the procedure:
as §1, §2, §3
NC Nephotettix cincticeps

Test [4] has as its system Musca domestica (houseflies - adults). Nature of the test: Knockdown test on houseflies - adults (MD/KD), Cotton wool/sugar. The settings on record: 500 ppm, 4 hours, read-out: MD/KD grading of knockdown. As for the experimental part: as §1, §2
In the case of the species Musca domestica (housefly), additional tests to determine the knockdown effect of the compounds were performed. PG,163
as §3

Test [5] shares this test system. The experiment in a line: Contact test on houseflies - adults (MD), Cotton wool/sugar, mortality. The settings on record: 72 h, 500 ppm, contact, 3 days, read-out: MD grading of mortality. As for the experimental part:
as §1, §2, §3

The test system of test [6] is Blattella germanica (cockroach nymphs). Nature of the test: Contact test on cockroach nymphs (BG/C), Plastic pot, mortality. The settings on record: 48 h, contact, 2 days, read-out: BG/C grading of mortality. On the procedure:
as §1, §2, §3
BG/C Blattella germanica

Test [7] relates to Heliothis virescens (tobacco budworm - larvae). The experiment in a line: Residual test on tobacco budworm larvae (HV), Cotton leaf, mortality. The settings on record: 48 h, read-out: HV grading of mortality. As for the experimental part: as §1, §2, §3
(tobacco budworm - larvae)

In test [8] the test system is Spodoptera exigua (lesser army worm - larvae). The experiment in a line: Residual test on lesser army worm larvae (SP), Cotton leaf, mortality. The settings on record: 48 h, residual, 2 days, read-out: SP grading of mortality. On the procedure: as §1, §2, §3
(lesser army worm - larvae)

The subject of test [9] is Diabrotica balteata (rootworm larvae). The experiment in a line: Residual test on rootworm larvae (DB), Filter paper/maize seed, mortality. The settings on record: 48 h, residual, 2 days, read-out: DB grading of mortality. As for the experimental part: as §1, §2, §3

In the case of `CC(C)(C)c1ncc(C(C(=O)OCc2ccc(F)c(Cc3ccccc3)c2)C(C)(C)C)cn1` (racemic) [Compound 18, 3-benzyl-4-fluorobenzyl (RS)-2-[2-(1,1-dimethylethyl)pyrimidin-5-yl]-3,3-dimethylbutanoate], the mortality at 500 ppm in test [1] was 80 to 100%; in test [2], less than 50%; in the test with Myzus persicae (aphids), 80 to 100%; in test [3], 80 to 100%; in [5], less than 50%; in test [6], less than 50%. Besides, the mortality at 500 ppm in test [7], in test [8] and in test [9] was 80 to 100% in each case. Besides, the pest or weed control at 500 ppm in test [4] was in the range of 80 to 100%.
Consider `CC(C)(C)c1ncc(C(C(=O)OCc2c(F)c(F)c(CC=CCl)c(F)c2F)C(C)(C)C)cn1` (racemic) [Compound 14, 4-(EZ-3-chloroprop-2-en-1-yl)-2,3,5,6-tetrafluorobenzyl (RS)-2-[(1,1-dimethylethyl)pyrimidin-5-yl)-3,3-dimethylbutanoate], for which the mortality at 500 ppm is 80 to 100% in [1]; less than 50% in test [2]; 80 to 100% in the test with Myzus persicae (aphids); 80 to 100% in [3]; 80 to 100% in test [5]; less than 50% in test [6]. Besides, the mortality at 500 ppm is 80 to 100% in test [7], less than 50% in test [8] and less than 50% in test [9]. For the same compound, in test [4], the pest or weed control at 500 ppm was in the range of 50 to 79%.
As for `CC(C)c1ncc([C@H](C(=O)O[C@H](C)c2cccc(Oc3ccccc3)n2)C(C)(C)C)cn1` (racemic) [Compound 74, (RS)-1-(6-phenoxypyridin-2-yl)ethyl (RS)-2-[2-(1-methylethyl)pyrimidin-5-yl]-3,3-dimethylbutanoate], the mortality at 500 ppm in test [1] is 80 to 100%; in test [2] it was less than 50%; in the test on Myzus persicae (aphids), 50 to 79%; in [3], 80 to 100%; in test [5], 50 to 79%; in test [6], less than 50%. For the same compound, the mortality at 500 ppm is 80 to 100% in test [7], 80 to 100% in [8] and less than 50% in test [9]. Further, the pest or weed control at 500 ppm in test [4] is less than 50%.
`CCC(C)(C)c1ncc(C(C(=O)OCc2c(F)c(F)c(COC)c(F)c2F)C(C)(C)C)cn1` (racemic) [Compound 61, 2,3,5,6-tetrafluoro-4-(methoxymethyl)benzyl (RS)-2-[2-(1,1-dimethylpropyl)pyrimidin-5-yl]-3,3-dimethylbutanoate]: the mortality at 500 ppm in test [1] was 80 to 100%; in test [2], less than 50%; in the test with Myzus persicae (aphids), 80 to 100%; in [3], 80 to 100%; in [5], 80 to 100%; in [6] it was less than 50%. Moreover, the mortality at 500 ppm was less than 50% in test [7], 80 to 100% in test [8] and less than 50% in test [9]. Also, the pest or weed control at 500 ppm in test [4] fell in the range of 80 to 100%.
For `C#CCSCc1c(F)c(F)c(COC(=O)C(c2cnc(C(C)(C)C)nc2)C(C)(C)C)c(F)c1F` (racemic) [Compound 220], the mortality at 500 ppm is 80 to 100% in test [1]; less than 50% in test [2]; 80 to 100% in the test on Myzus persicae (aphids); 80 to 100% in [3]; 80 to 100% in test [5]; less than 50% in test [6]. The mortality at 500 ppm in test [7] is less than 50%; in test [8], 50 to 79%; in test [9], 50 to 79%. The pest or weed control at 500 ppm in [4] was in the range of 80 to 100%.
In the case of `CSc1c(COC(=O)C(c2cnc(C(C)(C)C)nc2)C(C)(C)C)cc(F)c(C)c1F` (racemic) [Compound 182, 4-methyl-2-thiomethyl-3,5-difluorobenzyl (RS)-2-[2-(1,1-dimethylethyl)pyrimidin-5-yl]-3,3dimethylbutanoate], the mortality at 500 ppm in test [1] is 80 to 100%; in test [2], less than 50%; in the test on Myzus persicae (aphids) it was 50 to 79%; in test [3], 80 to 100%; in test [5] it was less than 50%; in test [6], less than 50%. The mortality at 500 ppm in [7], in test [8] and in test [9] was less than 50% throughout. For the same compound, the pest or weed control at 500 ppm in test [4] is less than 50%.
In the case of `CC(C)(C)c1ncc(C(C(=O)OCc2c(F)c(F)c(F)c(F)c2F)C(C)(C)C)cn1` (racemic) [Compound 30, 2,3,4,5,6-pentafluorobenzyl (RS)-2-[2-(1,1-dimethylethyl)pyrimidin-5-yl]-3,3-dimethylbutanoate], the mortality at 500 ppm was 80 to 100% in [1]; less than 50% in test [2]; 80 to 100% with Myzus persicae (aphids); 80 to 100% in [3]; 80 to 100% in test [5]; less than 50% in test [6]. Further, the mortality at 500 ppm in test [7], in test [8] and in [9] was 80 to 100% each time. Moreover, in test [4], the pest or weed control at 500 ppm lay in the range of 80 to 100%.
For the compound `CC(C)(C)c1ncc(C(C(=O)OCc2ccc(F)c(Oc3ccccc3)c2)C(C)(C)C)cn1` (racemic) [Compound 25, 4-fluoro-3-phenoxybenzyl (RS)-2-[2-(1,1-dimethylethyl)pyrimidin-5-yl]-3,3-dimethylbutanoate], the mortality at 500 ppm in [1] was 80 to 100%; in [2], 80 to 100%; in the test on Myzus persicae (aphids), 80 to 100%; in test [3], 80 to 100%; in test [5] it was less than 50%; in test [6] it was less than 50%. The values for the mortality at 500 ppm in test [7], in test [8] and in [9] were 80 to 100%, 80 to 100% and 50 to 79%, respectively. The pest or weed control at 500 ppm in [4] was 80 to 100%.
As for `CCC(C)(C)C(C(=O)OCc1c(F)c(F)c(COC)c(F)c1F)c1cnc(C(C)(C)C)nc1` (racemic) [Compound 210, 4-methoxymethyl-2,3,5,6-tetrafluorobenzyl (RS)-2-[2-(1,1-dimethylethyl)-pyrimidin-5-yl]-3,3-dimethylpentanoate], the mortality at 100 ppm is 80 to 100% in test [1] (100 ppm); 80 to 100% in test [2] (100 ppm); less than 50% in the test on Myzus persicae (aphids) (100 ppm); less than 50% in test [6] (100 ppm); less than 50% in test [7]; less than 50% in test [8] (100 ppm). Further, the mortality at 100 ppm in [9] (100 ppm) is less than 50%.
Take `CC(C)(C)c1ncc(C(C(=O)OCc2c(F)c(F)c(CCl)c(F)c2F)C(C)(C)C)cn1` (racemic) [Compound 167, 4-chloromethyl-2,3,5,6-tetrafluorobenzyl (RS)-2-[2-(1,1-dimethylethyl)pyrimidin-5-yl]-3,3-dimethylbutanoate]: the mortality at 500 ppm in [1] was 80 to 100%; in test [2], 80 to 100%; with Myzus persicae (aphids) it was 80 to 100%; in test [5] it was less than 50%; in [6], less than 50%; in test [7], 80 to 100%. Further, the mortality at 500 ppm in test [8] and in [9] was 80 to 100% in each case. The pest or weed control at 500 ppm in test [4] is less than 50%.
Take `CC(C)(C)c1ncc(C(C(=O)OCN2C(=O)C3=C(CCCC3)C2=O)C(C)(C)C)cn1` (racemic) [Compound 6, N-3,4,5,6-tetrahydrophthalimidomethyl (RS)-2-[2-(1,1-dimethylethyl)pyrimidin-5-yl]-3,3-dimethylbutanoate]: the mortality at 500 ppm is 80 to 100% in test [1]; less than 50% in the test on Myzus persicae (aphids); less than 50% in [3]; less than 50% in test [5]; less than 50% in test [6]; less than 50% in [7]. The results for the mortality at 500 ppm in test [8] and in test [9] were less than 50% and 50 to 79%, respectively. The pest or weed control at 500 ppm in test [4] is less than 50%.
